In patent US7888332B2, “Hydrazide-containing CFTR inhibitor compounds and uses thereof” (The Regents of the University of California, priority 2004, dated 2011):

How the values were obtained:
[1] = Spectrophotometric pH titration (pKa); type: physicochemical
Description: FIG. 5A is a graph illustrating the pH-dependent absorbance changes (right panel) of the chemical compounds (10 μM) (corresponding chemical structures, left panel) in NaCl (100 mM) containing MES, HEPES, boric acid, and citric acid (each 10 mM) titrated to different pH using HCl/NaOH. Absorbance changes measured at analytical wavelengths of 346, 348, 346, and 236 nm (top to bottom).

[2] = target: T1, CFTR (cAMP-stimulated short-circuit current) in mouse ileum (Mus musculus, UniProt P26361); test: Short-circuit current in intact mouse ileum
T1 construct: from tissue; host or cells: isolated mouse ileal segments in a micro-Ussing chamber
T1 sequence (P26361 whole entry): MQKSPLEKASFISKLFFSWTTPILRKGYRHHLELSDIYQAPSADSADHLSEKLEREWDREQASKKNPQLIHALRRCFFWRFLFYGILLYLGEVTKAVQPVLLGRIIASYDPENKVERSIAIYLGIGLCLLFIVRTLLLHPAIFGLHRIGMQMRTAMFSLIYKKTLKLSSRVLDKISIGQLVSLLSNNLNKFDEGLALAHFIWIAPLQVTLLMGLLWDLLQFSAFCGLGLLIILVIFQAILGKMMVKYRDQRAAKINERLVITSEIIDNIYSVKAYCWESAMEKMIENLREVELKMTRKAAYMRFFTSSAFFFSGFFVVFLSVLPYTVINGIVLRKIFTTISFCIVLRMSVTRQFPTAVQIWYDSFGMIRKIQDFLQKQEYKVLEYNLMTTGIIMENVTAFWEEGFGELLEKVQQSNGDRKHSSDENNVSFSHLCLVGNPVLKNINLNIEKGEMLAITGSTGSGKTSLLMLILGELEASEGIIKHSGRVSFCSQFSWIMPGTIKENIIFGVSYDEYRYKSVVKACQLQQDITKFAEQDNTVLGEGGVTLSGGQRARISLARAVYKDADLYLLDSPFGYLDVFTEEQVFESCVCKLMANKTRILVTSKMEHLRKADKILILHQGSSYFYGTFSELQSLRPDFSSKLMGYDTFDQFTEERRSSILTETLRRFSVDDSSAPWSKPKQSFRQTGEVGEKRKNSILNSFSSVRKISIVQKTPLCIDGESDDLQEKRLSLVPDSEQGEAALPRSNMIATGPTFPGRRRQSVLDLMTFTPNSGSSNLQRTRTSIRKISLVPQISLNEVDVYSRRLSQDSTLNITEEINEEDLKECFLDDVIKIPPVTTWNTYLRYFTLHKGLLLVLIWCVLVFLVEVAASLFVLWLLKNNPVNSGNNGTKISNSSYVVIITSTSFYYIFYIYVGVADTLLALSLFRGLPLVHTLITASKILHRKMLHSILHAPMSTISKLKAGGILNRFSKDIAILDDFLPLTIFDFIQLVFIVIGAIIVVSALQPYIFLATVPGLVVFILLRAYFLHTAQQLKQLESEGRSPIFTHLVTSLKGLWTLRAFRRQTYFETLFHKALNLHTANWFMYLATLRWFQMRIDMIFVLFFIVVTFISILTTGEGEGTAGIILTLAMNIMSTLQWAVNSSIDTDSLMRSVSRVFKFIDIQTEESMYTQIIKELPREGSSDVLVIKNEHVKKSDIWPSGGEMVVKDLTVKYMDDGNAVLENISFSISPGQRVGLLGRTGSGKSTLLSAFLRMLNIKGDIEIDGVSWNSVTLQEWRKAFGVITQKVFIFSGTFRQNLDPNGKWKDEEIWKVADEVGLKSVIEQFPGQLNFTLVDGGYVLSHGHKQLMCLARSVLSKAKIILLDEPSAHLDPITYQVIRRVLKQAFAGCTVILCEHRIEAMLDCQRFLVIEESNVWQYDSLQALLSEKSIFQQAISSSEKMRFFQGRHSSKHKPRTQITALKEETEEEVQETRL
Description: (§1) The efficacy of GlyH-101 in inhibiting cAMP/cholera toxin-induced intestinal fluid secretion was also evaluated. Short-circuit current experiments were done in different cell types and in intact mouse ileum under non-permeabilized conditions and in the absence of a Cl^− gradient. In each case CFTR was activated by CPT-cAMP after ENaC inhibition by amiloride. […] Inhibition was ˜100% at higher GlyH-101 concentrations. Cholera toxin-induced intestinal fluid secretion was measured in an in vivo closed-loop model in which loops for each mouse were injected with saline (control), cholera toxin (1 μg), or cholera toxin (1 μg)+GlyH-101 (0.25 μg). GlyH-101 was added to the lumen (rather than systemically) based on initial studies showing poor intestinal absorption and little effect of systemically administered compound. Compared to the saline control, the cholera toxin-induced increase in fluid secretion over 4 hours, quantified from loop weight-to-length ratio, was 80% reduced by GlyH-101.

[3] = Initial studies of GlyH-101 intestinal absorption and systemic administration; type: in vivo
Description: as §1

[4] = target: upper airway CFTR Cl− conductance (Mus musculus, UniProt P26361); test: Nasal potential difference measurements in mice
Sequence of upper airway CFTR Cl− conductance (P26361 whole entry): as above

CFTR = CFTR (Homo sapiens, UniProt P13569); test: Cell-based YFP fluorescence assay of iodide influx after CFTR activation (screening); parameters: expressed in transfected cells; host or cells: Fisher Rat Thyroid (FRT) cells, stably transfected
Sequence of CFTR (P13569 whole entry): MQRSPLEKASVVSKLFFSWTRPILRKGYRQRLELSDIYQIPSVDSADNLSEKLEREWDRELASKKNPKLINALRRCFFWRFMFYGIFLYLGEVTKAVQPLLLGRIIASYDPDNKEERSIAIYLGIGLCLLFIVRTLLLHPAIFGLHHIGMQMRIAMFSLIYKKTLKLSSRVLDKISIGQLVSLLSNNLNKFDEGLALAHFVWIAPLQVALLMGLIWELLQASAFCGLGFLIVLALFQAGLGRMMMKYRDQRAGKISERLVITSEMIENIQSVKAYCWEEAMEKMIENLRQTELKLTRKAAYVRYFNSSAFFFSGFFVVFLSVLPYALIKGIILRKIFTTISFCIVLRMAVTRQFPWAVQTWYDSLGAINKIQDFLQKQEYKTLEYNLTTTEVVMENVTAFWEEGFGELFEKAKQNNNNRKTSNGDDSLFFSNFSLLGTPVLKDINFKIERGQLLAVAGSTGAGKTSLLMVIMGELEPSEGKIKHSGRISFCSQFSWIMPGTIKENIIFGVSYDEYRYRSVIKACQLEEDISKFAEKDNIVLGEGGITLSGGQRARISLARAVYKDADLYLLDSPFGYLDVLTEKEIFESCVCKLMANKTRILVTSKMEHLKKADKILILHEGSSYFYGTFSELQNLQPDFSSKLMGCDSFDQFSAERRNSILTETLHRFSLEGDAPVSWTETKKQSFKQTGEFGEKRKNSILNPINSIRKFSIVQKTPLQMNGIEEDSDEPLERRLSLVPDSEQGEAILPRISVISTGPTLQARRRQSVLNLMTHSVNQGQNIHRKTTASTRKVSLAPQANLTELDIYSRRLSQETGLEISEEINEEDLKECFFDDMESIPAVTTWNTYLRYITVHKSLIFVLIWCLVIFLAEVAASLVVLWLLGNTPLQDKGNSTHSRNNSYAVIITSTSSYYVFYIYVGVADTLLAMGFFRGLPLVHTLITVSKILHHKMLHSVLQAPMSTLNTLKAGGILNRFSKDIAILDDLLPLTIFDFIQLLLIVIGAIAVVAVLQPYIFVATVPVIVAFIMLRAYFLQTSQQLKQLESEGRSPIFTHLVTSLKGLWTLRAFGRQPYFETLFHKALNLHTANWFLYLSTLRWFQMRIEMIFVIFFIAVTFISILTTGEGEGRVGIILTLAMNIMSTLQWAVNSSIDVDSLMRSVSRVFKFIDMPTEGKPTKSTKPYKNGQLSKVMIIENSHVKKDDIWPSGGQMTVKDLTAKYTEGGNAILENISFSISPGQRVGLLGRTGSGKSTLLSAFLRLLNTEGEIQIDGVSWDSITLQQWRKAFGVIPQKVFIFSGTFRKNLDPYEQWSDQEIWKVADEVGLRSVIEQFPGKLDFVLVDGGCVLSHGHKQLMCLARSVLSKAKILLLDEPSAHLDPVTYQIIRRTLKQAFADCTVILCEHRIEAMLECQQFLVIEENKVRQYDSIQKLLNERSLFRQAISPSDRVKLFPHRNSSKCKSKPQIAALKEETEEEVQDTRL
Description: Screening was performed using an integrated system (Beckman) consisting of a 3-meter robotic arm, CO2 incubator, plate washer, liquid handling work station, barcode reader, delidding station, plate sealer and two fluorescence plate readers (Optima, BMG Lab Technologies), each equipped with two syringe pumps and HQ500/20X (500±10 nm) excitation and HQ535/30M (535±15 nm) emission filters (Chroma).
One hundred thousand small molecules (most 350-550 daltons) were selected for screening from commercial sources (ChemBridge and ChemDiv, both of San Diego, Calif.) using algorithms designed to maximize chemical diversity and drug-like properties. The compounds were obtained as a dried powder and solutions were made in DMSO just before testing, stored frozen as 2.5 mM stock solutions for further use.
For screening, cells in 96-well plates were washed three times and then CFTR halide conductance was activated by incubation for 15 minutes with an activating cocktail containing 10 μM forskolin, 20 μM apigenin and 100 μM isobutylmethyl-xanthine (IBMX). Test compounds (final 25 μM) were added 5 minutes prior to assay of iodide influx in which cells were exposed to a 100 mM inwardly-directed iodide gradient. YFP fluorescence was recorded for 2 seconds prior to and 12 seconds after creation of the iodide gradient. Initial rates of iodide influx were computed from the time course of decreasing fluorescence after the iodide gradient (Yang et al., J. Biol. Chem., 35079-35085, 2003).
A collection of 100,000 small, drug-like compounds was screened to identify new CFTR inhibitors. As diagrammed in FIG. 1A, compounds were screened at 25 μM in a cell-based assay of iodide influx after CFTR activation by an agonist mixture containing forskolin, IBMX and apigenin. Initial rates of iodide influx were computed from the kinetics of fluorescence decrease following chloride replacement by iodide. Four compounds (FIG. 1B) reducing iodide influx by greater than 50% were identified, which were not related structurally to known CFTR activators or inhibitors.

[5] = after GlyH-101 addition (10 μM)

Structure (SMILES): O=C(CNc1ccc2ccccc2c1)NN=Cc1cc(Br)c(O)c(Br)c1O [GlyH-101, N-2-napthalenyl-[(3,5-dibromo-2,4-dihydroxyphenyl)methylene]glycine hydrazide]
- pKa, first (para) phenolic hydroxyl [1]: ~5.5
- pKa, second ortho hydroxyl [1]: ~8.5
- pKa, secondary amine [1]: ~4.7
- ionic form ([1]; pH between 6 and 8): singly charged anion
- Inhibition at higher concentrations [2]: ~100%
- Ki ([2]; CPT-cAMP after amiloride, read-out: Ki for inhibition of cAMP-stimulated short-circuit current): ~5 µM
- effect of systemically administered compound [3]: little effect
- intestinal absorption [3]: poor
- water solubility compared to CFTRinh-172 (Water solubility): 50 fold
- water solubility (Water solubility; in water, 22° C., pH 6-8): 800 to 1300 µM
- PD change (ΔPD), paired analysis ([4]; after ˜4 mV hyperpolarization by forskolin): depolarization of similar magnitude
- inhibition of forskolin-induced hyperpolarization ([4]; compound in all solutions (10 μM)): substantial inhibition
- effect on forskolin-induced hyperpolarization of nasal PD ([4]; topical in perfusate, 10 μM): rapidly reversed
- CFTR inhibition after activation by different types of agonists (CFTR; 50 μM GlyH-101, agonists 50 μM incl. CFTRact-01, 08, 10): effective CFTR inhibition
- time of further inhibition (CFTR; [5]): ~1 min
- time within which 50% of the inhibition occurred (CFTR; [5]): ≤ 1 s
- reversal of inhibition after washout (CFTR; washout): complete reversal
- reversal of inhibition over 5 minutes after washout (CFTR; washout, 5 minutes): > 75%
